Reference: patent US5304474A, “Hydrophobic peptide esters and amides” (Board of Regents, The University of Texas System, priority 1991, dated 1994)

Legend:
[1] = Conversion of [3H]Leu-Leu-OMe in cells to a product which precipitates in 10% TCA; type: in vitro ADME, human; settings: for Fractional Conversion of [^3 H]Leu--Leu--OMe to a product which Precipitates in 10% TCA: Intact NK, T8 Cells
Protocol: Additional experiments, detailed in Table 7, were performed to assess the metabolic fate of [^3 H]Leu-Leu-OMe within PBL. Cells were incubated with [^3 H]Leu-Leu-OMe for 15 minutes at 22° C. to permit uptake of this compound and then were washed. If the cells were immediately lysed and 10% trichloroacetic acid (TCA) was added to precipitate higher molecular weight cell proteins and nucleic acids, essentially all of the [^3 H]label remained in the supernatant as anticipated for a small molecular weight peptide which is soluble in 10% TCA.
In experiment 1 of Table 8 non-adherent peripheral blood lymphocytes were incubated in the presence or absence of 250 micro-M unlabeled Leu-Leu-OMe for 15 minutes and then cultured overnight at 37° C. This form of exposure to Leu-Leu-OMe has been shown previously herein to result inloss of NK cells and a substantial fraction of CD8(+) T cells, whereas the majority of CD4(+) lymphocytes are resistant to any toxic effects of this agent and remain viable and functionally intact. […] However, when production of a product which precipitated in 10% TCA was assessed following a second incubation at 37° C. for 30 minutes, it was noted that the LLMe resistant subset of lymphocytes produced almost no detectable amounts of this as yet unidentified product.
In experiment 2 (Table 8), PBL were divided into a CD4(+) T cell (T4 cell)-enriched population and a T8, NK-enriched population by staining with anti-CD4 or anti-CD8 monoclonal antibodies and panning on goat anti-mouse coated petri dishes to enrich for the unstained lymphocyte subsets as previously described (see prior Examples and J. Immunol. 1986 136:1038-1048). Again, it was noted that T4 cells took up less [^3 H]Leu-Leu-OMe during an initial incubation than did a population of lymphocytes enriched for T8 and NK cells. However, the differences in production of a product which precipitated in 10% TCA were even more dramatic. Whereas initial [^3 H]Leu-Leu-Me uptake by T4 cells was approximately 53% of that seen with an equal number of T8 and NK cells, the amount of [^3 H]label appearing in a 10% TCA precipitate of the T4 cell sonicate after a subsequent 30 minute incubation was less than 7% of the quantity noted in the TCA precipitable of T8 and NK cell sonicates. Furthermore, little or no TCA insoluble product was produced by other non-lymphoid cell types such as dermal fibroblasts or a renal cell carcinoma line, Cur, which have been previously noted to be resistant to the toxicity of Leu-Leu-OMe (J. Immunol 1986: 136:1038-1048). […] As proteinase K digestion removed this product, it was likely to be a larger peptide or protein into which [^3 H]Leu had been incorporated.

[2] = target: dipeptidyl peptidase I (DPPI) (Bos taurus, UniProt Q3ZCJ8); assay: Polymerization of [3H]Leu-Leu-OMe to a TCA insoluble product by purified enzyme; type: biochemical, bovine
Text: When R1 and R2 are amino acids with nonpolar side groups, such products are very hydrophobic and water insoluble (J. Biol. Chem. 1952; 195:645-656). […] Of note, much lower extracellular concentrations of Leu-Leu-OMe are required for production of a similar product within NK and T8 cells.

[3] = tested on: peripheral blood lymphocytes (PBL); assay: [3H]Leu-Leu-OMe uptake/binding by lymphocytes; type: in vitro ADME, human
Protocol: Human peripheral blood lymphocytes (PBL) were incubated in the presence of [^3 H]labeled Leu-Leu-OMe at 22° C. for varying lengths of time. The incubation mixture was then centrifuged through silicone oil to separate the cells from any unbound or non-internalized [^3 HLeu-Leu-OMe. […] At 37° C., levels of [^3 H]Leu-Leu-OMe accumulation by PBL were increased above those seen at 22° C. (see Table 4).

[4] = Expt. 1, LLMe Resistant Lymphocytes
[5] = Expt. 1, Non-adherent Lymphocytes
[6] = second 37° C. incubation 15 minutes
[7] = second 37° C. incubation 30 minutes
[8] = second 37° C. incubation 60 minutes

Sequence of dipeptidyl peptidase I (DPPI) (Q3ZCJ8 231-394 limits assumed): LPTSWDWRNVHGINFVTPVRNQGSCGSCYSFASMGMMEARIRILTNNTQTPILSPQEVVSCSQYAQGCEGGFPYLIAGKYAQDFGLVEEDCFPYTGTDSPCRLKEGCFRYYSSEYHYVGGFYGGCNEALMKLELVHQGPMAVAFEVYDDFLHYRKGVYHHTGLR
Sequence of dipeptidyl peptidase I (DPPI) (Q3ZCJ8 25-134 limits assumed): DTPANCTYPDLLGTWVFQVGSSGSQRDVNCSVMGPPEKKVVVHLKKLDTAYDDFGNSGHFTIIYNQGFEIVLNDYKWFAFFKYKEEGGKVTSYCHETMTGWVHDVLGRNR
Sequence of dipeptidyl peptidase I (DPPI) (Q3ZCJ8 395-463 limits assumed): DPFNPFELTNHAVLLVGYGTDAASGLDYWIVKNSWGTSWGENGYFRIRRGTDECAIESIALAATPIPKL

COC(=O)[C@H](CC(C)C)NC(=O)[C@@H](N)CC(C)C [[^3 H]Leu--Leu--OMe]
Incorporation, Initial [1, 4]: 7,184 cpm
Incorporation, TCA Precipitate [1, 4]: 50 cpm
TCA Precipitate (% of initial) [1, 4]: 0.7%
Incorporation, Initial [1, 5]: 27,870 cpm
TCA Precipitate (% of initial) [1, 5]: 8.4%
Incorporation, TCA Precipitate ([1]; Expt. 1, Non-adherent Lymphocytes, 30 minutes 37° C.): 2,341 cpm
Incorporation, Initial ([1]; Expt. 2, Fibroblasts): 63,229 cpm
Incorporation, TCA Precipitate ([1]; Expt. 2, Fibroblasts): 293 cpm
TCA Precipitate (% of initial) ([1]; Expt. 2, Fibroblasts): 0.5%
Incorporation, Initial ([1]; Expt. 2, Renal Cell Carcinoma): 35,855 cpm
Incorporation, TCA Precipitate ([1]; Expt. 2, Renal Cell Carcinoma): 267 cpm
TCA Precipitate (% of initial) ([1]; Expt. 2, Renal Cell Carcinoma): 0.7%
Incorporation, Initial ([1]; Expt. 2, T4 Cells): 12,200 cpm
Incorporation, TCA Precipitate ([1]; Expt. 2, T4 Cells): 207 cpm
TCA Precipitate (% of initial) ([1]; Expt. 2, T4 Cells): 1.7%
Incorporation, Initial ([1]; Expt. 2, T8, NK Cells): 22,753 cpm
Incorporation, TCA Precipitate ([1]; Expt. 2, T8, NK Cells): 3,208 cpm
TCA Precipitate (% of initial) ([1]; Expt. 2, T8, NK Cells): 14.1%
initial uptake by T4 cells relative to equal number of T8 and NK cells ([1]; Expt. 2 of Table 8): approximately 53%
Fractional Conversion of [^3 H]Leu--Leu--OMe to a product which Precipitates in 10% TCA ([1]; 1 micro-M): < 0.1%
Fractional Conversion of [^3 H]Leu--Leu--OMe to a product which Precipitates in 10% TCA ([1]; 10 micro-M): < 0.2%
Fractional Conversion of [^3 H]Leu--Leu--OMe to a product which Precipitates in 10% TCA ([1]; 100 micro-M): 11.1%
Fractional Conversion of [^3 H]Leu--Leu--OMe to a product which Precipitates in 10% TCA ([1]; 250 micro-M): 23.2%
[^3 H]Leu--Leu--OMe Total ([1]; PBL, 15 minutes 22° C., second 37° C. incubation 0): 61.4 cpm × 10^-3
label in TCA precipitate of T4 cell sonicate relative to T8 and NK cell sonicates ([1]; after 30 minute incubation): less than 7%
[^3 H]Leu--Leu--OMe TCA Prec. ([1]; second 37° C. incubation 0): 0.5 cpm × 10^-3
[^3 H]Leu--Leu--OMe TCA Prec. [1, 6]: 6.8 cpm × 10^-3
[^3 H]Leu--Leu--OMe Total [1, 6]: 24.9 cpm × 10^-3
[^3 H]Leu--Leu--OMe TCA Prec. [1, 7]: 12.7 cpm × 10^-3
[^3 H]Leu--Leu--OMe Total [1, 7]: 20.6 cpm × 10^-3
[^3 H]Leu--Leu--OMe TCA Prec. [1, 8]: 10.7 cpm × 10^-3
[^3 H]Leu--Leu--OMe Total [1, 8]: 12.7 cpm × 10^-3
Fractional Conversion of [^3 H]Leu--Leu--OMe to a product which Precipitates in 10% TCA ([2]; 1 micro-M): < 0.01%
Fractional Conversion of [^3 H]Leu--Leu--OMe to a product which Precipitates in 10% TCA ([2]; 10 micro-M): 0.03%
Fractional Conversion of [^3 H]Leu--Leu--OMe to a product which Precipitates in 10% TCA ([2]; 100 micro-M): 0.08%
Fractional Conversion of [^3 H]Leu--Leu--OMe to a product which Precipitates in 10% TCA ([2]; 1000 micro-M): 20.0%
[^3 H]Leu--Leu--OMe Uptake/Binding ([3]; Expt. 1, 0° C.): 0.05 micro-moles/10^6 cells
[^3 H]Leu--Leu--OMe Uptake/Binding ([3]; Expt. 1, 22° C.): 0.77 micro-moles/10^6 cells
[^3 H]Leu--Leu--OMe Uptake/Binding ([3]; Expt. 2, 4° C.): 0.02 micro-moles/10^6 cells
[^3 H]Leu--Leu--OMe Uptake/Binding ([3]; Expt. 2, 22° C.): 0.31 micro-moles/10^6 cells
[^3 H]Leu--Leu--OMe Uptake/Binding ([3]; Expt. 2, 37° C.): 0.52 micro-moles/10^6 cells
